What was measured:
[1] = system: CT26 mouse colon carcinoma; experiment: Treatment of established subcutaneous CT26 tumors in BALB/cJ mice (syngeneic CT26 mouse colon carcinoma model); type: in vivo; settings: CFI-402257 6 mg/kg PO QD 21 days, anti-PD-1 antibody 150 μg IP Days 0, 3, 6, 10
Protocol: (§1) BALB/cJ mice were inoculated subcutaneously with 1×10^6 CT26 cells. The mice were then randomized. Animal weights were monitored daily, and tumor volume was measured three times per week.
[…] was defined as 100×[1−TVf, treated−TVi, treated)/(TVf, control−TVi, control)], where TVf is the average tumor volume at the end of study and TVi is the average tumor volume at the end initiation of treatment. In cases in which tumor regression occurred, percentage of tumor regression was defined as 100×[1−(TVf, treated/TVi, treated)]. At the completion of each study, the mice were killed by an anesthetic overdose, and tumor tissue was removed for further analysis.
Treatments were initiated when tumor volumes reached an average size of ˜60 mm^3. To treat an established tumor, the animals were first assigned into groups, i.e., the control group receiving rat IgG2a […], the group receiving the compound CFI-402257 monotherapy, the group receiving the rat IgG2a anti-PD-1 antibody monotherapy and the group receiving the combination therapy. The compound CFI-402257 and the vehicle [10% (v/v) NMP/40% (v/v) PEG-300/50% (v/v) water for the hydrochloride form; or 80-90% (v/v) PEG-300 or PEG-400 20-10% (v/v) water for the bisphosphate hemihydrate form] were administered by oral gavage (PO), at 6 mg/kg daily (QD) for 21 days. […]

[2] = Animal body weight monitoring / tolerability in CT26 tumor-bearing BALB/cJ mice; type: in vivo, mouse
Protocol: as §1
Treatments were initiated when tumor volumes reached an average size of ˜60 mm^3. To treat an established tumor, the animals were first assigned into groups, i.e., the control group receiving rat IgG2a […], the group receiving the compound CFI-402257 monotherapy, the group receiving the rat IgG2a anti-PD-1 antibody monotherapy and the group receiving the combination therapy. The compound CFI-402257 and the vehicle [10% (v/v) NMP/40% (v/v) PEG-300/50% (v/v) water for the hydrochloride form; or 80-90% (v/v) PEG-300 or PEG-400 20-10% (v/v) water for the bisphosphate hemihydrate form] were administered by oral gavage (PO), at 6 mg/kg daily (QD) for 21 days. The anti-PD-1 antibody or the isotype control were administered by intraperitoneal (IP) injection. 150 μg anti-PD-1 antibody was administered in four doses, i.e., on Days 0, 3, 6 and 10. These treatment studies were carried out in duplicates.

## Cc1cc(-c2cnn3c(NC[C@H]4C[C@@](C)(O)C4)cc(Oc4cccnc4)nc23)ccc1C(=O)NC1CC1 [CFI-402257]
[1]; first and duplicate experiment together (FIGS. 1 and 2)
  complete tumor regression: no instances in which complete regression was observed
[1]; single agent arms, first and duplicate experiment (FIGS. 1B, 1C, 2B, 2C)
  effect on tumor growth (tumor volume): tumor growth delay
[2]; CFI-402257 6 mg/kg PO QD 21 days, anti-PD-1 antibody 150 μg IP Days 0, 3, 6, 10
  tolerability of the administered dosage: well-tolerated
[2]; first experiment
  animals recording significant body weight loss: none
[2]; second experiment
  body weight loss: < 7.5%

Reference: US11766437B2, “Combination therapies for inhibition of TTK protein kinase” (UNIVERSITY HEALTH NETWORK, priority 2018, dated 2023)
